# Assay results: US6475509B1, “Covalent conjugates of sodium channel blockers and active compounds” (The University of North Carolina at Chapel Hill, priority 1999, dated 2002)
# Counter-ions that a name gives are not always drawn.
# Legend:
# [1] = system: airway epithelial Na^+ currents; test: Lumenal drug inhibition of airway epithelial Na+ currents, monolayers in Ussing chambers, with wash-out; format: cell-based, human or dog; conditions: for Effect of washout (3) 100% = Baseline: after maximal concentration (10^-4 M), lumenal bath exchanged three times with fresh KBR; for IC50 / Max Inhibition (%) from baseline: mucosal bath, voltage clamp; for IC50: half-log dose addition
# Method: In the second potency assay, airway epithelial monolayers mounted were in Ussing chambers: The principal assay consisted of tests of lumenal drug inhibition of airway epithelial Na^+ currents. Cells obtained from freshly excised human or dog airways were seeded onto SNAP-well Inserts (CoStar), cultured under air-liquid (ALI) conditions in hormonally defined media. The cells were assayed for Na^+ transport activity while bathed in Krebs bicarbonate Ringer (KBR) in the Ussing chambers under voltage clamp conditions. All test drug additions were to the mucosal bath with half-log dose addition protocols (10^−11 M-[…]). All drugs were made in standard stocks of 10^−2 M drug in DMSO. Eight preparations were typically run in parallel; two preparations/run were routinely used to assay amiloride and benzamil. After the maximal concentration (10^−4 M) was administered, the lumenal bath was exchanged three times with fresh KBR solution, which was defined as the “wash-out” effect. All data from the voltage clamps were collected via a computer interface and analyzed off-line.
# Dose-effect relationships for all compounds were considered and analyzed by the Prism 3.0 program. The IC50, maximal effective concentrations, and percent washout were calculated and compared to those of amiloride and benzamil as reference compounds.
# The first assay is referred to an assay of reversibility. Empirically, the percent of wash-out correlates with cellular uptake. The relationship is complex because reversibility is also a function of potency. However, reversibility is a quick and simple screen. The compounds that “reverse” best in this assay referenced to benzamil were also the least absorbed in the confocal assay, as described below.
# [2] = system: cultured airway epithelia; test: Confocal microscopy assay of drug uptake into cultured airway epithelia; format: cell-based; conditions: compound on apical surface of airway cultures, x-z confocal microscopy; relative to amiloride
# Method: FIG. 2 is an example of a confocal microscopy assay of drug uptake into cultured airway epithelia. In this assay, a compound (10^−4 M) is placed on the airway surface and fluorescence from the cells collected by x-z scanning confocal microscopy. The images shown on the left depict fluorescence in the cells 20 minutes after exposure to amiloride, benzamil and phenamil. Quantitation of the drug uptake is graphically illustrated on the right in terms of units of fluorescence.
# The second assay utilizes confocal microscopy of amiloride congener uptake: Virtually all amiloride-like molecules fluoresce in UV range. This property of these molecules was used to directly measure cellular uptake, using a x-z confocal microscope (Leica). […] Serial x-z images were obtained with time and the magnitude of fluorescence accumulating in the cell compartment quantitated and plotted. […] Two compounds from the synthesis series described above (CF-509 and CF-519) appear to fulfil this criterion. Compounds that were equipotent or greater with amiloride were tested for wash-out as described above. However, because wash-out may reflect both potency and cell uptake, the rate of accumulation of fluorescence (indexed to the specific fluorescence/emission spectrum of each compound) in the cell compartment as a function of time was also routinely measured. […]
Cellular uptake (fluorescence accumulating in the cell compartment) [2],Compound,Effect of washout (3) 100% = Baseline [1] [%],IC50 [1] [µM],Max Inhibition (%) from baseline [1] [%]
–,"Br.Br.N=C(NCc1cccc(CNC(=N)NC(=O)c2nc(Cl)c(N)nc2N)c1)NC(=O)c1nc(Cl)c(N)nc1N [CF-512, 1,3-Bis[(3,5-diamino-6-chloropyrazinovl)guanidino]xylylene Dihydrobromide]",60,0.197,92
–,"N/C(=N\C(=O)c1nc(Cl)c(N)nc1N)NCc1ccc(CN/C(N)=N/C(=O)c2nc(Cl)c(N)nc2N)cc1 [CF-516, 1,4-Bis[(3,5-diamino-6-chloropyrazinoyl)guanidinol]xylylene Dihydrobromide]",65,0.33,90
rapid,"NC(=NCc1ccccc1)NC(=O)c1nc(Cl)c(N)nc1N [benzamil, 3,5-diamino-6-chloro-N-(benzylaminoaminomethylene) pyrazinecarboxamide, reference compound]",–,–,–
